Key:
[1] = target: T1, WT STING (Homo sapiens, UniProt Q86WV6, H232R); test: Differential Scanning Fluorimetry (DSF) with WT STING; format: binding; conditions: thermal shift vs STING apoprotein; 150 μM CDN; 0.1 mg/ml protein; SYPRO Orange
T1 construct: encoded truncated human WT STING or AQ STING (amino acid residues 140-343) with N-terminal 8×His and SUMO tag; 8xHis-SUMO (N, cleaved yes); made in house; host or cells: E. coli Rosetta-gami B (DE3)
Description: (§1) WT STING and AQ STING Proteins
(§2) Purified PCR products were cleaved with restriction enzymes BamHI (cat. #R0136S, NEB, Ipswich, USA) and NotI (cat. #R0189S, NEB, Ipswich, USA) and cloned into the pSUMO vector linearized with the identical enzymes.
(§3) DNase I (cat. #D5025, Sigma Aldrich, Czech Republic) and RNase A (cat. #R6513, Sigma Aldrich, Czech Republic) were added (final concentration 50 μg/ml) together with MgCl2 (final concentration 5 mmol·l^−1) to the homogenate and bacteria were lysed using French Press G-M™ High-Pressure Cell Press Homogenizer (1500 psi, 3 cycles). […] The resin was poured into a chromatography column, washed with 50 ml buffer A (50 mmol·l^−1 TrisCl (pH 8.0), 800 mmol·l^−1 NaCl, 3 mmol·l^−1 3-mercaptol; 10% glycerol; 20 mmol·l^−1 imidazole) and 8-His-SUMO tagged STING proteins were eluted with 15 ml buffer A containing 300 mmol·l^−1 imidazole. […] Proteins were concentrated with Amicon® Ultra-15 10 K device (cat. #UFC901008, Merck Millipore, Billerica, USA) and flash frozen in liquid N2.
(§4) Differential Scanning Fluorimetry (DSF) with WT STING and AQ STING
(§5) 20 μL solutions of the reaction mixtures were pipetted in triplicates into 96 well optical reaction plates and thermal denaturation of samples were performed on real time PCR cycler (LightCycler R 480 Instrument II—Roche, Basel, Switzerland). The first derivative of the thermal denaturation curves was performed to calculate denaturing temperatures of STING-CDN complexes and STING apoproteins. The thermal shift for each CDN was calculated by subtracting the average denaturing temperature of STING apoprotein from the average denaturing temperature of STING CDN complex.

[2] = target: T2, AQ STING (G230A-R293Q) (Homo sapiens, UniProt Q86WV6, G230A/H232R/R293Q); test: Differential Scanning Fluorimetry (DSF) with AQ STING; format: binding; conditions: thermal shift vs STING apoprotein; 150 μM CDN; 0.1 mg/ml protein; SYPRO Orange
T2 construct: encoded truncated human WT STING or AQ STING (amino acid residues 140-343) with N-terminal 8×His and SUMO tag; 8xHis-SUMO (N, cleaved yes); made in house; host or cells: E. coli Rosetta-gami B (DE3)
T2 sequence (Q86WV6 140-343 G230A/H232R/R293Q): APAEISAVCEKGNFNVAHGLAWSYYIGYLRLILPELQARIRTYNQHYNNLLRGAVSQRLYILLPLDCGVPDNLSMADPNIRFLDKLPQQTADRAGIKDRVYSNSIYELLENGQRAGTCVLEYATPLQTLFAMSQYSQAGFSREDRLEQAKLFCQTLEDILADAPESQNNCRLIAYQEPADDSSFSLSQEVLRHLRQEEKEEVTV
Description: as §1, §2, §3, §4, §5

[3] = target: T3, human wild type STING (WT STING) (Homo sapiens, UniProt Q86WV6, H232R); test: Digitonin assay using 293T wtSTING-FL reporter cells; format: cell-based; conditions: 293T wtSTING-FL cells; ISRE firefly luciferase reporter; 30 min in Digitonin buffer, then 5 hours; 8-point dose-response curve
T3 construct: host or cells: 293T (ATCC CRL-3216), stably transfected, with a 4xISRE firefly luciferase reporter
T3 sequence (Q86WV6 whole entry H232R): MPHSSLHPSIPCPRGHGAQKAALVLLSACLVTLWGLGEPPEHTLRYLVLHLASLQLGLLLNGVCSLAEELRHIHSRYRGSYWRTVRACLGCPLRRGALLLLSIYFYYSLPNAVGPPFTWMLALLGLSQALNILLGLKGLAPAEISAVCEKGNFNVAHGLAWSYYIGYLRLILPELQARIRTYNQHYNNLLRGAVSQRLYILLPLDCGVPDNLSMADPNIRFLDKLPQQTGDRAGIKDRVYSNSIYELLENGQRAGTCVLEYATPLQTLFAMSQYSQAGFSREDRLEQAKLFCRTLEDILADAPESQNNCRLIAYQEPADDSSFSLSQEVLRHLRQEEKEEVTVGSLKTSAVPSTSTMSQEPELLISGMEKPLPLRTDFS
Excerpt: ISRE Reporter Plasmid (pGL64.27-4×ISRE)
Two complementary oligonucleotides of the sequence […] […] […] […] […] The oligonucleotides were mixed in equal molar amounts, hybridized, and cleaved by restriction endonucleases HindIII (cat. #. R0104S, NEB, Ipswich, USA) and BglII (cat. #R0144S, NEB, Ipswich, USA). Ultimately, they were ligated into plasmid pGL4.27 (cat. #E6651, Promega, Madison, USA) linearized with the same enzymes. As result the sequence with four ISRE sites was placed upstream of the minimum promoter of firefly luciferase reporter gene.
After 5 minutes incubation at room temperature (RT), 250 μL of the mixture was added dropwise to the cells in one well. Cells were incubated 36 hours at 37° C. with 5% CO2, and then detached with 0.05% Trypsin and 0.22 g/L EDTA (both cat. #L0941, Biowest, Riverside, USA).
Transfected cells were seeded onto poly-D-lysine coated six well plates at density 50,000 cells per 1 cm^2 in DMEM medium with high glucose containing 10% heat inactivated FBS, 30 μg/mL blasticidin (cat. #ant-bl-05, InvivoGen, San Diego, USA), 0.06 mg/ml Penicillin G and 0.1 mg/ml Streptomycin Sulfate (both cat. #. L0018, Biowest, Riverside, USA). The medium was replenished every 3-4 days until visible colonies of cells resistant to blasticidin were formed.
Blasticidin resistant cells stably expressing WT STING were further transfected with pGL64.27-4×ISRE plasmid following the same procedure as described above. […] Homogeneous culture of stably double transfected cells was prepared by limiting dilution of cells in 96 well plates and wells with cells were selected that originated from a single cell.
The medium was removed next day and three fold serial dilutions of compounds in Digitonin buffer containing 50 mmol·l^−1 HEPES (cat. #H3375, Sigma Aldrich, Czech Republic) pH 7.0, 100 mmol·l^−1 KCl, 3 mmol·l^−1 MgCl2, 0.1 mmol·l^−1 DTT (cat. #D0632, Sigma Aldrich, Czech Republic), 85 mmol·l^−1 Sucrose (cat. #S7903, Sigma Aldrich, Czech Republic), 0.2% BSA (cat. #A2153, Sigma Aldrich, Czech Republic), 1 mmol·l^−1 ATP (cat. #A1852, Sigma Aldrich, Czech Republic), 0.1 mmol·l^−1 GTP (cat. #G8877, Sigma Aldrich, Czech Republic), and 10 μg/mL Digitonin A (cat. #D141, Sigma Aldrich, Czech Republic) were added to the cells. The buffer was removed after 30 minutes incubation at 37° C. with 5% CO2, the cells were washed once with 100 μl of cultivation medium, and 100 μl of medium was added to each well. The plates with cells were incubated for 5 hours at 37° C. with 5% CO2, 50 μl of the medium was removed and 30 μl of ONE-Glo™ Luciferase Assay System reagent (cat. #E6120, Promega, Madison, USA) was added to each well. Luminescence was read on Synergy H1 (Biotek, Winooski, USA).

T1 sequence (Q86WV6 140-343 H232R): as the sequence (Q86WV6 140-343 G230A/H232R/R293Q) above, with A91G, Q154R counted along it

| Compound | ΔTm at 150 µM [1] [°C] | ΔTm at 150 µM [2] [°C] | EC50 [3] [µM] | DSF ΔTm WT STING [1] [°C] | DSF ΔTm AQ STING [2] [°C] |
| --- | --- | --- | --- | --- | --- |
| Nc1nc2c(ncn2[C@@H]2O[C@@H]3OCP(=O)(O)OC4C(O)[C@H](n5cnc6c(N)ncnc65)O[C@@H]4COP(=O)(O)OC3C2O)c(=O)[nH]1 (stereo partly drawn) [Compound 37] | 7.6 | 15.9 | 0.005 | – | – |
| Nc1ncnc2c1ncn2[C@@H]1O[C@@H]2OCP(=O)(O)OC3C(O)[C@H](n4cnc5c(N)ncnc54)O[C@@H]3COP(=O)(O)OC2C1O (stereo partly drawn) [Compound 51] | 4 | 10.6 | 0.17 | – | – |
| Nc1ncnc2c1ccn2[C@@H]1O[C@@H]2COP(=O)(O)OC3C(O)[C@H](n4cnc5c(N)ncnc54)O[C@@H]3OCP(=O)(O)OC2C1O (stereo partly drawn) [Compound 50] | 0.4 | 2 | 8.6 | – | – |
| Nc1ncnc2c1ncn2[C@@H]1O[C@@H]2OCP(=O)(O)OC3C(O)[C@H](n4cnc5c(N)nc(F)nc54)O[C@@H]3COP(=O)(O)OC2C1O (stereo partly drawn) [Compound 52] | 1.1 | 6.3 | 2.2 | – | – |
| Nc1nc2c(ccn2[C@@H]2O[C@@H]3COP(=O)(O)OC4C(O)[C@H](n5cnc6c(N)ncnc65)O[C@@H]4OCP(=O)(O)OC3C2O)c(=O)[nH]1 (stereo partly drawn) [Compound 43] | 0.6 | 3.3 | 4.7 | – | – |
| COc1nc(N)nc2c1ncn2[C@@H]1O[C@@H]2COP(=O)(O)OC3C(O)[C@H](n4cnc5c(N)ncnc54)O[C@@H]3OCP(=O)(O)OC2C1O (stereo partly drawn) [Compound 41] | 0.1 | 1.6 | 17.6 | – | – |
| Nc1ncnc2c1ncn2[C@@H]1O[C@@H]2COP(=O)(O)OC3C(O)[C@H](n4cnc5c(N)ncnc54)O[C@@H]3OCP(=O)(O)OC2C1N (stereo partly drawn) [Compound 47] | 0.1 | 2.1 | 20.8 | – | – |
| CSc1nc(N)nc2c1ncn2[C@@H]1O[C@@H]2COP(=O)(O)OC3C(O)[C@H](n4cnc5c(N)ncnc54)O[C@@H]3OCP(=O)(O)OC2C1O (stereo partly drawn) [Compound 45] | 0 | 1.1 | 20.8 | – | – |
| CNc1ncnc2c1ncn2[C@@H]1O[C@@H]2COP(=O)(O)OC3C(O)[C@H](n4cnc5c(N)ncnc54)O[C@@H]3OCP(=O)(O)OC2C1O (stereo partly drawn) [Compound 48] | 0.6 | 4.4 | 1.5 | – | – |
| Nc1ncnc2c1ncn2[C@@H]1O[C@@H]2COP(=O)(O)O[C@H]3[C@@H](O)[C@H](n4cnc5c(N)ncnc54)O[C@@H]3COP(=O)(O)O[C@H]2[C@H]1O [3′3′c-di-AMP, 3′3′-c-di-AMP, reference compound] | – | – | 0.3 | 2.6 | 9.3 |
| Nc1ncc2ncn([C@@H]3O[C@@H]4COP(=O)(O)OC5C(O)[C@H](n6cnc7c(N)ncnc76)O[C@@H]5OCP(=O)(O)OC4C3O)c2n1 (stereo partly drawn) [Compound 42] | 0.7 | 6.6 | 0.6 | – | – |

Continued by falling EC50 [3], values first:

| ΔTm at 150 µM [1] [°C] | ΔTm at 150 µM [2] [°C] | EC50 [3] [µM] | DSF ΔTm WT STING [1] [°C] | DSF ΔTm AQ STING [2] [°C] | Compound |
| --- | --- | --- | --- | --- | --- |
| 0.2 | 4.3 | 19.6 | – | – | Nc1ncnc2c1ncn2[C@@H]1O[C@@H]2COCP(=O)(O)OC3C(F)[C@H](n4cnc5c(N)ncnc54)O[C@@H]3COP(=O)(O)OC2C1O (stereo partly drawn) [Compound 34, (2R,3R,3aS,7aR,9R,10R,10aR,15aR)-2,9-bis(6-amino-9H-purin-9-yl)-10-fluoro-3,5,12-trihydroxydecahydro-2H-difuro[2,3-e:2′,3′-1][1,3,7,10]tetraoxa[2,8]diphosphacyclotridecine 5,12-dioxide] |
| 0.1 | 2.5 | 19.2 | – | – | Nc1ncnc2c1ncn2[C@@H]1O[C@@H]2OCP(=O)(O)OC3C(O)[C@H](n4cnc5c(N)ncnc54)O[C@@H]3OCP(=O)(O)OC2C1O (stereo partly drawn) [Compound 31, (2R,3R,3aS,7aR,9R,10R,10aS,14aR)-2,9-bis(6-amino-9H-purin-9-yl)-3,5,10,12-tetrahydroxydecahydrodifuro[2,3-e:2′,3′-k][1,4,7,10]tetraoxa[2,8]diphosphacyclododecine 5,12-dioxide] |
| 0.4 | 2.1 | 7.5 | – | – | Nc1nc(Cl)c2ncn([C@@H]3O[C@@H]4COP(=O)(O)OC5C(O)[C@H](n6cnc7c(N)ncnc76)O[C@@H]5OCP(=O)(O)OC4C3O)c2n1 (stereo partly drawn) [Compound 40] |
| – | – | 5.8 | 2.6 | 7.7 | Nc1nc2c(ncn2[C@@H]2O[C@@H]3COP(=O)(O)O[C@H]4[C@@H](O)[C@H](n5cnc6c(=O)[nH]c(N)nc65)O[C@@H]4COP(=O)(O)O[C@H]3[C@H]2O)c(=O)[nH]1 [3′3′c-di-GMP, 3′3′-c-di-GMP, reference compound] |
| 2.3 | 9 | 2.4 | – | – | Nc1nc2c(ncn2[C@@H]2O[C@@H]3COCP(=O)(O)OC4C(F)[C@H](n5cnc6c(N)ncnc65)O[C@@H]4COP(=O)(O)OC3C2O)c(=O)[nH]1 (stereo partly drawn) [Compound 35, 2-amino-9-((2R,3R,3aS,7aR,9R,10R,10aR,15aR)-9-(6-amino-9H-purin-9-yl)-10-fluoro-3,5,12-trihydroxy-5,12-dioxidodecahydro-2H-difuro[2,3-e:2′,3′-l][1,3,7,10]tetraoxa[2,8]diphosphacyclotridecin-2-yl)-1,9-dihydro-6H-purin-6-one] |
| 0.5 | 4.2 | 1.5 | – | – | Nc1ncnc2c1ncn2[C@@H]1O[C@@H]2OCP(=O)(O)OC3C(O)[C@H](n4cnc5c(N)ncnc54)O[C@@H]3COP(=O)(S)OC2C1O (stereo partly drawn) [Compound 49] |
| 2.9 | 8 | 0.12 | – | – | CNc1ncnc2c1ncn2[C@@H]1O[C@@H]2COP(=O)(O)OC3C(O)[C@H](n4cnc5c(=O)[nH]c(N)nc54)O[C@@H]3OCP(=O)(O)OC2C1O (stereo partly drawn) [Compound 39] |
| – | – | 0.11 | 5.7 | 12.0 | (2R,3R,3aS,7aR,9R,10R,10aR,14aR)-2,9-bis(6-amino-9H-purin-9-yl)-10-fluoro-3,5,12-trihydroxydecahydrodifuro[3,2-d:3′,2′-i][1,3,6,9]tetraoxa[2,8]diphosphacyclododecine 5,12-dioxide [Compound 33] |
| 4.5 | 11.2 | 0.09 | – | – | Nc1nc2c(ncn2[C@@H]2O[C@@H]3COP(=O)(O)OC4C(O)[C@H](n5cnc6c(N)ncnc65)O[C@@H]4OCP(=O)(O)OC3C2O)c(=O)[nH]1 (stereo partly drawn) [Compound 44] |
| 3.9 | 12.2 | 0.06 | – | – | Nc1nc2c(nnn2[C@@H]2O[C@@H]3OCP(=O)(O)OC4C(O)[C@H](n5cnc6c(N)ncnc65)O[C@@H]4COP(=O)(O)OC3C2O)c(=O)[nH]1 (stereo partly drawn) [Compound 54] |
